For data set [1], the target named is T1, AR transcriptional activity (Homo sapiens, UniProt P10275, T878A).
T1 construct: The LNCaP eGFP cell line was stably transfected with an androgen-responsive probasin-derived promoter fused to an eGFP reporter; endogenous in cells; host or cells: LNCaP eGFP (LN-ARR2PB-eGFP) human prostate cancer cells
T1 sequence (P10275 1-920 T878A): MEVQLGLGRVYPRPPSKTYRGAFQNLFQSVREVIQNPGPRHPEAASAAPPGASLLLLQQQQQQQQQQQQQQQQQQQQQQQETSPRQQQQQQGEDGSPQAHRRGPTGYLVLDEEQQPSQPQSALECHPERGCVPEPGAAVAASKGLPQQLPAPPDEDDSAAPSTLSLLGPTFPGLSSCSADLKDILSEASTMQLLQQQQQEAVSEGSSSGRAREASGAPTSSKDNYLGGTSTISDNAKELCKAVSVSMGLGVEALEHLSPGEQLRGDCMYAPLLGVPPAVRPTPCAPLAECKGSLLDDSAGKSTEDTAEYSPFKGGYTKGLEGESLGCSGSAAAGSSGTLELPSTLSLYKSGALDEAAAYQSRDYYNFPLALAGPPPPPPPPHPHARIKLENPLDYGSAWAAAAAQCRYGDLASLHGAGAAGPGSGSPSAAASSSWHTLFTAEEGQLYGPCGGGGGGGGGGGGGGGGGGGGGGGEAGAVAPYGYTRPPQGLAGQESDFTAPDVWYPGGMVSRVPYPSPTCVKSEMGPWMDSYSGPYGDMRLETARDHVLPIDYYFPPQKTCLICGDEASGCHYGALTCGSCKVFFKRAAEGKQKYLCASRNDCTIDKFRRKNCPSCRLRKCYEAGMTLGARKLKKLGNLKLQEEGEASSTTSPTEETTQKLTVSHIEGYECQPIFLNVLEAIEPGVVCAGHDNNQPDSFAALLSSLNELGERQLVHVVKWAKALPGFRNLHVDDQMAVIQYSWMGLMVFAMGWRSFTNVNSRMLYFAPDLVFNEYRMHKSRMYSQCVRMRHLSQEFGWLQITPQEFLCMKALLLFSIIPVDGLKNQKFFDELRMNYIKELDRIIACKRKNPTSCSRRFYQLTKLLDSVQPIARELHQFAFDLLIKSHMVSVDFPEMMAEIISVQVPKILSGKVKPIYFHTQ
The data set is described as follows: eGFP cellular AR transcription assay. The format is cell-based. The note with it: LNCaP eGFP cell line. An excerpt:
The DNA-binding domain is an attractive target for inhibition of AR dimerization and/or DNA binding. In silico computational drug discovery methods were used to conduct a virtual screen of >3 million purchasable lead-like compounds from the ZINC database (Irwin, J. et al.^11) to identify potential DBD binders. The in silico methods included large-scale docking, in-site rescoring and consensus voting procedures. It will be understood by a person of skill that COOH and NR2 may include the corresponding ions, for example carboxylate ions and ammonium ions, respectively. Alternatively, where the ions are shown, a person of skill in the art will appreciate that the counter ion may also be present. Furthermore, it will be appreciated by a person of skill that other moieties may include the corresponding ions, and where the ions are shown, a person of skill in the art will appreciate that the counter ion may also be present. […] Where the % inhibition, eGFP IC50 or the PSA IC50 has no value given, this may be because no measurement was taken or the value was not calculated, in the case of the % inhibition. In vitro identification of AR inhibitors targeting AR DBD The selected compounds were assessed with a non-destructive eGFP assay that quantifies levels of AR transcriptional activity, were identified (table below).
1. Cell Culture: LNCaP and PC3 human prostate cancer cells were obtained from American Type Culture Collection (ATCC, Manassas, Va.) and grown in RPMI 1640 medium supplemented with 5% fetal bovine serum (FBS) (Invitrogen). The LNCaP eGFP cell line was stably transfected with an androgen-responsive probasin-derived promoter fused to an eGFP reporter (LN-ARR2PB-eGFP) using a lentiviral approach, and were grown in phenol-red-free RPMI 1640 supplemented with 5% CSS. In-house developed MDV3100-resistant LNCaP cells were cultured in RPMI 1640 supplemented with 5% FBS and 10 μM MDV3100. All cells were maintained at 37° C. in 5% CO2.
2. eGFP cellular AR transcription assay: The AR transcriptional activity was assayed as previously described (Tavassoli, P., et al.^12).

Data set [2] in a line: in vitro. The note with it: for microsomal CLint at 2 μM: human, microsomes, pH 7.4. The protocol:
Microsomal incubations were carried out in 96-well plates in 5 aliquots of 40 μL each (one for each time point). […] Control incubations were performed replacing the NADPH-cofactor system with PBS. […] Incubations were performed in duplicates. Five time points over 40 minutes had been analyzed. The reactions were stopped by adding 12 volumes of 90% acetonitrile-water to incubation aliquots, followed by protein sedimentation by centrifuging at 5500 rpm for 5 minutes. Supernatants were analyzed using the HPLC system coupled with tandem mass spectrometer. The elimination constant (kel), half-life (t1/2) and intrinsic clearance (Clint) were determined in plot of […] versus time, using linear regression analysis: […]

The values that follow come from patent publication US20200031848A1, “AR-V7 INHIBITORS” (Hoffmann-La Roche Inc., priority 2016, published 2020).

For orientation: IC50 means the concentration needed to halve the response being measured. A higher IC50 goes with weaker potency. The term microsomal CLint denotes the capacity of the preparation to metabolise the compound, expressed as a volume cleared per time.

Compound `Brc1cn(-c2csc(N3C[C@@H]4C[C@H]3CO4)n2)c(Br)n1` [Example 11, (1S,4S)-5-[4-(2,4-dibromoimidazol-1-yl)thiazol-2-yl]-2-oxa-5-azabicyclo[2.2.1]heptane] came in with an IC50 in data set [1] of 1180 nM.
The same measure, in the same setting: then `Brc1ncn(-c2csc(N3C[C@@H]4C[C@H]3CO4)n2)c1Br` [Example 12, (1S,4S)-5-[4-(4,5-dibromoimidazol-1-yl)thiazol-2-yl]-2-oxa-5-azabicyclo[2.2.1]heptane], with 1320 nM; and `Brc1cn(-c2csc(N3C[C@H]4CC[C@@H](C3)O4)n2)c(Br)n1` [Example 13, (1S,5R)-3-[4-(2,4-dibromoimidazol-1-yl)thiazol-2-yl]-8-oxa-3-azabicyclo[3.2.1]octane], with 110 nM; and `Brc1cn(-c2csc(N3CCOCC3C3CC3)n2)c(Br)n1` (stereo not shown) [Example 14, 3-cyclopropyl-4-[4-(2,4-dibromoimidazol-1-yl)thiazol-2-yl]morpholine], with 120 nM.
As to `CCC1COCCN1c1nc(-n2cc(Br)nc2Br)cs1` (stereo not shown) [Example 15, 4-[4-(2,4-dibromoimidazol-1-yl)thiazol-2-yl]-3-ethyl-morpholine], the microsomal CLint at 2 μM in data set [2] worked out at 51 µL/min/mg. In data set [1], this compound returned an IC50 of 130 nM.
The compound `CSc1nc(Br)cn1-c1csc(N2[C@@H]3CC[C@H]2COC3)n1` [Example 16, (1R,5S)-8-[4-(4-bromo-2-methylsulfanyl-imidazol-1-yl)thiazol-2-yl]-3-oxa-8-azabicyclo[3.2.1]octane] returned an IC50 in data set [1] of 140 nM.
Regarding `CC1CN(c2nc(-n3cc(Br)nc3Br)cs2)C(C)CO1` (stereo not shown) [Example 17, 4-[4-(2,4-dibromoimidazol-1-yl)thiazol-2-yl]-2,5-dimethyl-morpholine], in data set [2], the microsomal CLint at 2 μM came to 41 µL/min/mg. Inhibition in data set [1] was half-maximal at 190 nM (IC50).
`Brc1cn(-c2csc(N3CCOC4(CCCC4)C3)n2)c(Br)n1` [Example 18, 9-[4-(2,4-dibromoimidazol-1-yl)thiazol-2-yl]-6-oxa-9-azaspiro[4.5]decane]: in data set [2] (NADPH-cofactor system replaced with PBS), the “"No cofactor" control: role of CYP450 in metabolism” value is reported as “not determined just by CYP450 activity”. Besides, the “metabolic stability in human hepatic microsomal test system (in words)” value in data set [2] (human hepatic microsomes) was “low stability”. For the same compound, in data set [2], the microsomal CLint at 2 μM turned out to be 100 µL/min/mg. For the same compound, in data set [1], the IC50 is 200 nM.
The compound `Clc1ncn(-c2csc(N3[C@@H]4CC[C@H]3COC4)n2)c1Cl` [Example 19, (1R,5S)-8-[4-(4,5-dichloroimidazol-1-yl)thiazol-2-yl]-3-oxa-8-azabicyclo[3.2.1]octane] yielded a microsomal CLint at 2 μM in data set [2] of 42 µL/min/mg. For the same compound, half-maximal inhibition in data set [1] (IC50) required 320 nM.
For `Clc1ncn(-c2csc(N3C[C@H]4CC[C@@H](C3)O4)n2)c1Cl` [Example 20, (1S,5R)-3-[4-(4,5-dichloroimidazol-1-yl)thiazol-2-yl]-8-oxa-3-azabicyclo[3.2.1]octane] the same measures were 40 µL/min/mg and 250 nM.
On to `FC(F)(F)C1CN(c2nc(-n3cc(Br)nc3Br)cs2)CCO1` (stereo not shown) [Example 25, 4-[4-(2,4-dibromoimidazol-1-yl)thiazol-2-yl]-2-(trifluoromethyl)morpholine], for which 1700 nM corresponded to half-maximal inhibition in data set [1] (IC50).
Same read-out and setting: then `Brc1cn(-c2csc(N3CCOC4CCCC43)n2)c(Br)n1` (stereo not shown) [Example 26, 4-[4-(2,4-dibromoimidazol-1-yl)thiazol-2-yl]-3,4a,5,6,7,7a-hexahydro-2H-cyclopenta[b][1,4]oxazine], with 1530 nM; and `Brc1cn(-c2csc(N3CC4CC3CO4)n2)c(Br)n1` (stereo not shown) [Example 27, 5-[4-(2,4-dibromoimidazol-1-yl)thiazol-2-yl]-2-oxa-5-azabicyclo[2.2.1]heptane], with 1610 nM.
Same read-out and setting: then `Brc1cn(-c2csc(N3CCOC4(CCOCC4)C3)n2)c(Br)n1` [Example 28, 4-[4-(2,4-dibromoimidazol-1-yl)thiazol-2-yl]-1,9-dioxa-4-azaspiro[5.5]undecane], with 3120 nM; and `Brc1cn(-c2csc(N3CCOC4CCCCC43)n2)c(Br)n1` (stereo not shown) [Example 29, 4-[4-(2,4-dibromoimidazol-1-yl)thiazol-2-yl]-2,3,4a,5,6,7,8,8a-octahydrobenzo[b][1,4]oxazine], with 3150 nM; and `CC(C)C1CN(c2nc(-n3cc(Br)nc3Br)cs2)CCO1` (stereo not shown) [Example 30, 4-[4-(2,4-dibromoimidazol-1-yl)thiazol-2-yl]-2-isopropyl-morpholine], with 6650 nM.
On the same count and under the same terms, to `Brc1cn(-c2csc(N3CCOC(c4ccccc4)C3)n2)c(Br)n1` (stereo not shown) [Example 31, 4-[4-(2,4-dibromoimidazol-1-yl)thiazol-2-yl]-2-phenyl-morpholine] belongs 8150 nM; to `Brc1cn(-c2csc(N3CCOC(Cc4ccccc4)C3)n2)c(Br)n1` (stereo not shown) [Example 32, 2-benzyl-4-[4-(2,4-dibromoimidazol-1-yl)thiazol-2-yl]morpholine], 27400 nM.
For `Brc1cn(-c2csc(N3CCOC(c4cccs4)C3)n2)c(Br)n1` (stereo not shown) [Example 33, 4-[4-(2,4-dibromoimidazol-1-yl)thiazol-2-yl]-2-(2-thienyl)morpholine], the IC50 in data set [1] stood at 170 nM.
For the compound `CC(C)(C)C1CN(c2nc(-n3cc(Br)nc3Br)cs2)CC(C(C)(C)C)O1` (stereo not shown) [Example 34, 2,6-ditert-butyl-4-[4-(2,4-dibromoimidazol-1-yl)thiazol-2-yl]morpholine], the “eGFP IC50” value in data set [1] was “inact”.
Compound `Clc1ncn(-c2csc(N3CCOCC3)n2)c1Br` [Example 44, 4-[4-(5-bromo-4-chloro-imidazol-1-yl)thiazol-2-yl]morpholine] came in with a microsomal CLint at 2 μM in data set [2] of 196 µL/min/mg.
Still for that read-out and setting: to `Clc1c(Br)ncn1-c1csc(N2CCOCC2)n1` [Example 45, 4-[4-(4-bromo-5-chloro-imidazol-1-yl)thiazol-2-yl]morpholine] belongs 185 µL/min/mg.
`Clc1cn(-c2csc(N3CCOCC3)n2)cn1` [Example 47, 4-[4-(4-chloroimidazol-1-yl)thiazol-2-yl]morpholine] came in with an IC50 in data set [1] of 970 nM.
Consider `Brc1cn(-c2csc(N3CCOCC3)n2)cn1` [Example 48, 4-[4-(4-bromoimidazol-1-yl)thiazol-2-yl]morpholine], for which, in data set [2], the microsomal CLint at 2 μM came to 81 µL/min/mg.
`N#Cc1nc(Br)cn1-c1csc(N2CCOCC2)n1` [Example 51, 4-bromo-1-(2-morpholinothiazol-4-yl)imidazole-2-carbonitrile] registered an IC50 in data set [1] of 1600 nM.
Compound `Cc1ncn(-c2csc(N3CCOCC3)n2)c1C` [Example 52, 4-[4-(4,5-dimethylimidazol-1-yl)thiazol-2-yl]morpholine] registered an IC50 in data set [1] of 3650 nM.
Same read-out and setting: to `Brc1ncn(-c2csc(N3CCOC4(COC4)C3)n2)c1Br` [Example 65, 8-(4-(4,5-dibromo-1H-imidazol-1-yl)thiazol-2-yl)-2,5-dioxa-8-azaspiro[3.5]nonane] belongs 4470 nM.
